# Assay results as given in US20150284381A1, “AMINO-PYRIDINE-CONTAINING SPLEEN TYROSINE KINASE (SYK) INHIBITORS” (MERCK SHARP & DOHME CORP., priority 2012, published 2015).
# Target: T1, recombinant human GST-Syk (Homo sapiens, UniProt P43405)
# T1 construct: purchased Carna Biosciences 08-176
# Experiment: Homogeneous Time-Resolved Fluorescence (HTRF) assay for the recombinant human Syk enzyme
# Assay type: biochemical
# Details: recombinant human GST-Syk 5 pM, ATP 25 μM, 45 min at rt, read-out: rhSyk
# Experimental: Homogeneous Time-Resolved Fluorescence (HTRF) Assay for the Recombinant Human Syk Enzyme
# A recombinant GST-hSyk fusion protein was used to measure potency of compounds to inhibit human Syk activity. The recombinant human GST-Syk (Carna Biosciences #08-176) (5 pM nominal concentration) was incubated with various concentrations of the inhibitor diluted in DMSO (0.1% final concentration) for 10 minutes at rt in 15 mM Tris-HCl (pH 7.5), 0.01% tween 20, 2 mM DTT in 384 well plate format. To initiate the reaction the biotinylated substrate peptide (250 nM final concentration) that contains the phosphorylation site for Syk was added with magnesium (5 mM final concentration) and ATP (25 μM final concentration). Final volume of the reaction was 10 μL. Phosphorylation of the peptide was allowed to proceed for 45′ at rt. To quench the reaction and detect the phosphorylated product, 2 nM of a Europium-anti-phosphotyrosine antibody (Perkin Elmer #AD0161) and 70 nM SA-APC (Perkin-Elmer #CR130-100) were added together in 15 mM Tris pH 7.5, 40 mM EDTA, 0.01% tween 20. Final volume of the quenching solution was 10 μL. The resulting HTRF signal was measured after 30 minutes on a EnVision (Perkin-Elmer) reader using a time-resolved fluorescence protocol. IC50 was determined following 10-dose titration (10 μM to 0.508 nM) and four parameter logistic curve fitting using an assay data analyzer.
row,Structure (SMILES),IC50
1,"Cc1cc(Nc2cc(C(C)F)ccn2)nc(-c2cnc([C@@]3(O)CCc4cc(C(=O)O)ccc43)s2)c1 (single isomer, unassigned) [Example 2J, (1R)-1-[5-(6-{[4-((R or S)-1-fluoroethyl)pyridin-2-yl]amino}-4-methylpyridin-2-yl)-1,3-thiazol-2-yl]-1-hydroxy-2,3-dihydro-1H-indene-5-carboxylic acid]",0.04 nM
2,"CCc1ccnc(Nc2cc(C)cc(-c3cnc([C@@]4(O)CCCc5cc(C(=O)O)ccc54)s3)n2)c1 [Example 2F, (5R)-5-(5-{6-[(4-ethylpyridin-2-yl)amino]-4-methylpyridin-2-yl}-1,3-thiazol-2-yl)-5-hydroxy-5,6,7,8-tetrahydronaphthalene-2-carboxylic acid]",0.2 nM
3,"Cc1cc(Nc2cc(C(F)(F)F)ccn2)nc(-c2cnc(C3(O)CCCc4c3ccc(C(=O)O)c4F)s2)c1 (single isomer, unassigned) [Example 1J, (R or S)-1-fluoro-5-hydroxy-5-[5-(4-methyl-6-{[4-(trifluoromethyl)pyridin-2-yl]amino}pyridin-2-yl)-1,3-thiazol-2-yl]-5,6,7,8-tetrahydronaphthalene-2-carboxylic acid]",0.04 nM
4,"Cc1cc(Nc2cc(C3CC3)ccn2)nc(-c2cnc([C@@]3(O)CCc4cc(C(=O)O)ccc43)s2)c1 [Example 2C, (1R)-1-(5-{6-[(4-cyclopropylpyridin-2-yl)amino]-4-methylpyridin-2-yl}-1,3-thiazol-2-yl)-1-hydroxy-2,3-dihydro-1H-indene-5-carboxylic acid]",0.55 nM
5,"Cc1cc(Nc2cc(-c3cn[nH]c3)ccn2)nc(-c2cnc(C3(O)CCCc4cc(C(=O)N(C)C)ccc43)s2)c1 (single isomer, unassigned) [Example 4C-1, 5-Hydroxy-N,N-dimethyl-5-[5-(4-methyl-6-{[4-(1H-pyrazol-4-yl)pyridin-2-yl]amino}pyridin-2-yl)-1,3-thiazol-2-yl]-5,6,7,8-tetrahydronaphthalene-2-carboxamide]",1.04 nM
6,"Cc1cc(Nc2cc(-c3cn[nH]c3)ccn2)nc(-c2cnc(C3(O)CCCc4cc(C(=O)O)ccc43)s2)c1 (single isomer, unassigned) [Example 4B-2, 5-Hydroxy-5-[5-(4-methyl-6-{[4-(1H-pyrazol-4-yl)pyridin-2-yl]amino}pyridin-2-yl)-1,3-thiazol-2-yl]-5,6,7,8-tetrahydronaphthalene-2-carboxylic acid]",0.8 nM
7,"CCCc1ccnc(Nc2cc(C)cc(-c3cnc([C@@]4(O)CCc5cc(C(=O)O)ccc54)s3)n2)c1 [Example 3D, (1R)-1-hydroxy-1-(5-{4-methyl-6-[(4-propylpyridin-2-yl)amino]pyridin-2-yl}-1,3-thiazol-2-yl)-2,3-dihydro-1H-indene-5-carboxylic acid]",0.08 nM
8,"Cc1cc(Nc2cc(C(F)F)ccn2)nc(-c2cnc([C@@]3(O)CCc4cc(C(=O)O)ccc43)s2)c1 [Example 2i, (1R)-1-[5-(6-{[4-(difluoromethyl)pyridin-2-yl]amino}-4-methylpyridin-2-yl)-1,3-thiazol-2-yl]-1-hydroxy-2,3-dihydro-1H-indene-5-carboxylic acid]",0.13 nM
9,"Cc1cc(Nc2cc(C(C)F)ccn2)nc(-c2cnc([C@@]3(O)CCc4cc(C(=O)O)ccc43)s2)c1 (single isomer, unassigned) [Example 2K, (1R)-1-[5-(6-{[4-((R or S)-1-fluoroethyl)pyridin-2-yl]amino}-4-methylpyridin-2-yl)-1,3-thiazol-2-yl]-1-hydroxy-2,3-dihydro-1H-indene-5-carboxylic acid]",0.05 nM
10,"Cc1cc(Nc2cc(C3CCC(C)CC3)ccn2)nc(-c2cnc([C@@]3(O)CCCc4cc(C(=O)O)ccc43)s2)c1 (stereo partly drawn) [Example 3B, (5R)-5-hydroxy-5-[5-(4-methyl-6-{[4-(4-methylcyclohexyl)pyridin-2-yl]amino}pyridin-2-yl)-1,3-thiazol-2-yl]-5,6,7,8-tetrahydronaphthalene-2-carboxylic acid]",2 nM
11,"CCOc1ccnc(Nc2cc(C)cc(-c3cnc([C@@]4(O)CCCc5cc(C(=O)O)ccc54)s3)n2)c1 [Example 2E, (5R)-5-(5-{6-[(4-ethoxypyridin-2-yl)amino]-4-methylpyridin-2-yl}-1,3-thiazol-2-yl)-5-hydroxy-5,6,7,8-tetrahydronaphthalene-2-carboxylic acid]",0.16 nM
12,"Cc1cc(Nc2cc(C(F)(F)F)ccn2)nc(-c2cnc(C3(O)CCCc4cc(C(=O)O)c(Cl)cc43)s2)c1 (single isomer, unassigned) [Example 1F, (R or S)-3-chloro-5-hydroxy-5-[5-(4-methyl-6-{[4-(trifluoromethyl)pyridin-2-yl]amino}pyridin-2-yl)-1,3-thiazol-2-yl]-5,6,7,8-tetrahydronaphthalene-2-carboxylic acid]",0.17 nM
13,"Cc1cc(Nc2cc(C(F)(F)F)ccn2)nc(-c2cnc(C3(O)CCCc4cc(C(=O)O)c(Cl)cc43)s2)c1 (single isomer, unassigned) [Example 1E, (R or S)-3-chloro-5-hydroxy-5-[5-(4-methyl-6-{[4-(trifluoromethyl)pyridin-2-yl]amino}pyridin-2-yl)-1,3-thiazol-2-yl]-5,6,7,8-tetrahydronaphthalene-2-carboxylic acid]",1.16 nM
14,"Cc1cc(Nc2cc(C3CC3)ccn2)nc(-c2cnc(C3(O)CCCc4cc(C(=O)O)c(F)cc43)s2)c1 (single isomer, unassigned) [Example 1G, (R or S)-5-(5-{6-[(4-cyclopropylpyridin-2-yl)amino]-4-methylpyridin-2-yl}-1,3-thiazol-2-yl)-3-fluoro-5-hydroxy-5,6,7,8-tetrahydronaphthalene-2-carboxylic acid]",4.3 nM
15,"CCOc1ccnc(Nc2cc(C)cc(-c3cnc([C@@]4(O)CCc5cc(C(=O)O)ccc54)s3)n2)c1 [Example 2D, (1R)-1-(5-{6-[(4-ethoxypyridin-2-yl)amino]-4-methylpyridin-2-yl}-1,3-thiazol-2-yl)-1-hydroxy-2,3-dihydro-1H-indene-5-carboxylic acid]",0.74 nM
16,"Cc1ccnc(Nc2cc(C)cc(-c3cnc([C@@]4(O)CCc5cc(C(=O)O)ccc54)s3)n2)c1 [Example 2A, (1R)-1-hydroxy-1-(5-{4-methyl-6-[(4-methylpyridin-2-yl)amino]pyridin-2-yl}-1,3-thiazol-2-yl)-2,3-dihydro-1H-indene-5-carboxylic acid]",0.15 nM
17,"Cc1cc(Nc2cc(C(F)(F)F)ccn2)nc(-c2cnc(C3(O)CCc4cc(C(=O)O)c(F)cc43)s2)c1 (single isomer, unassigned) [Example 1D, (R or S)-6-fluoro-1-hydroxy-1-[5-(4-methyl-6-{[4-(trifluoromethyl)pyridin-2-yl]amino}pyridin-2-yl)-1,3-thiazol-2-yl]-2,3-dihydro-1H-indene-5-carboxylic acid]",0.67 nM
18,"CCCc1ccnc(Nc2cc(C)cc(-c3cnc([C@@]4(O)CCCc5cc(C(=O)O)ccc54)s3)n2)c1 [Example 3E, (5R)-5-hydroxy-5-(5-{4-methyl-6-[(4-propylpyridin-2-yl)amino]pyridin-2-yl}-1,3-thiazol-2-yl)-5,6,7,8-tetrahydronaphthalene-2-carboxylic acid]",0.42 nM
